Compared with `O=C(O)c1cn([C@@H]2C[C@@H]2F)c2cc(N3C[C@@H]4NCCO[C@H]4C3)c(F)cc2c1=O`, `CNC1CCCN(c2c(F)cc3c(=O)c(C(=O)O)cn(C4CC4)c3c2OC)C1` (stereo not drawn) is lower in melting point: greater than 250 °C for the first, 134 to 135 °C for the second.

First: Cc1cccc(NC(=O)N=C2CCCN2C)c1
Second: O=C1CCCN1C(=O)c1ccc(O)cc1
The melting point of the first is lower: 137 to 142 °C for the first, 179 to 182 °C for the second.

Compared with `CC(c1cccc2c1Sc1c(O[Si](c3ccccc3)(c3ccccc3)C(C)(C)C)cccc1N2C)N1C(=O)c2ccccc2C1=O` (stereo not drawn), `COc1ccc(-c2ccccc2C(SCC(=O)c2ccccc2)C(OC(C)=O)C(N)=O)cc1` (stereo not drawn) is lower in melting point: 182 to 184 °C for the first, 122 to 123 °C for the second.

First: CN1Cc2ccccc2C(=O)c2cc(CC(=O)O)cc([N+](=O)[O-])c21
Second: O=C(O)CCC(C(=O)O)N1C(=O)c2ccccc2C1=S (stereo not drawn)
The melting point of the first is higher: 184 to 186 °C for the first, 157 °C for the second.

First: Cc1c(NC(=O)c2ccc(-c3ccccc3)c(F)c2)ccc2cc(CN3CCCCCC3)cnc12
Second: COC1(c2cc(F)cc(OCc3nc(-c4ccccc4)c(-c4ccc(S(N)(=O)=O)cc4)o3)c2)CCOCC1
The melting point of the first is higher: 129 to 130 °C for the first, 70 to 80 °C for the second.

First: CN(C)C(=O)n1cc(C(=O)C2CSC(c3cccnc3)N2)c2ccc(-c3ccccc3)cc21 (stereo not drawn)
Second: CN(C)S(=O)(=O)c1cc(C(=O)O)cc(NCc2ccccc2)c1Oc1ccccc1
The melting point of the first is lower: 91 to 97 °C for the first, 205 to 206 °C for the second.

First: COC(=O)c1cccc(C=NNc2ccc(C)cc2)c1O
Second: COC(=O)c1ccccc1OCCCOc1cc2c(cc1O)CCO2
The melting point of the first is higher: 134 to 137 °C for the first, 96 to 97 °C for the second.

Compared with `O=C(NC(=O)c1ccccn1)NC1CN2CCC1CC2` (stereo not drawn), `CNc1c2c(nc3ccccc13)CCCC2O` (stereo not drawn) is lower in melting point: 202 to 203 °C for the first, 160 to 161 °C for the second.

First: COc1cccc(NC(=O)N(C)Cc2cccc3c2C(=O)N(C2CCC(=O)NC2=O)C3=O)c1 (stereo not drawn)
Second: CCOc1ccc(C(=O)NCc2ccc3c(c2)C(=O)N(C2(C)CCC(=O)NC2=O)C3=O)cc1 (stereo not drawn)
The melting point of the first is lower: 160 to 162 °C for the first, 163 to 165 °C for the second.

First: CC(C)(C)NC1CCCCC1O (stereo not drawn)
Second: CC12CCC(=O)C=C1N(C(C)(C)C)CC1C2CCC2(CC(=O)O)C(C(=O)O)CCC12 (stereo not drawn)
The melting point of the first is lower: 42 to 44 °C for the first, 215 to 216 °C for the second.

Compared with `Cc1c(C)c2c(c(C)c1NC=O)OC(C)(C)C2=O`, `COc1ccc2[nH]c3c(C)nc4c(c3c2c1)C(=O)CC(C)(C)C4` is higher in melting point: 191 to 192 °C for the first, 241 to 243 °C for the second.

First: O=c1c2c(Cc3ccccc3)n[nH]c2c2ccncc2n1-c1ccccc1
Second: O=c1[nH]ccc2c1ccc1[nH]cc(CCN(Cc3ccccc3)Cc3ccccc3)c12
The melting point of the first is higher: 303 to 307 °C for the first, 250 to 253 °C for the second.

Compared with `CC(C)CC(NC(=O)c1ccc2c(N)cccc2n1)C(=O)NCC#N` (stereo not drawn), `Cc1nc2c(N)nc3cc(OCCNC(=O)C(C)C)ccc3c2n1CC(C)C` is higher in melting point: 190 to 194 °C for the first, 205 to 206 °C for the second.

First: CCOc1ccc2c(c1)n(C1CCCCC1)c(=O)n2Cc1ccc(S(=O)(=O)NC(C)(C)CC)cc1
Second: O=C(O)CCCCNC(=O)Cc1ccc2c(c1)CC(NS(=O)(=O)c1ccc(Cl)cc1)C2 (stereo not drawn)
The melting point of the first is higher: 165 °C for the first, 156 to 158 °C for the second.

Compared with `CSc1ccc(C(O)c2occc(=O)c2OCc2ccccc2)cc1` (stereo not drawn), `S=C(Nc1ccc(Cl)cc1)Nc1ncccc1OCc1ccccc1` is higher in melting point: 82 to 82.5 °C for the first, 140 to 143 °C for the second.

First: CCNC1CCN(c2c(F)cc3c(=O)c(C(=O)O)cn(C4CC4)c3c2OC)CC1C (stereo not drawn)
Second: COC(=O)CC(=O)c1cc(F)c(Cl)cc1Cl
The melting point of the first is higher: 160 to 162 °C for the first, 77 to 79 °C for the second.

First: O=C(CCl)c1csc(C(=O)CCl)c1
Second: CC(=O)c1cc2cc(OCC(=O)O)c(Cl)c(Cl)c2s1
The melting point of the first is lower: 154 to 155 °C for the first, 203 to 205 °C for the second.

First: CCc1ccc(OCCCN2CCC(C(O)(c3ccc(F)cc3)c3ccc(F)cc3)CC2)c(OC)c1
Second: Cc1ccc(C2COc3cc(O)ccc3C2c2ccc(OCCN3CCCC3)cc2)cc1 (stereo not drawn)
The melting point of the first is lower: 118 to 120 °C for the first, 161 to 165 °C for the second.

First: O=C1CCCC(=O)N1c1cc(Cl)cc(Cl)c1
Second: CS(=O)(=O)N[C@H]1C[C@H](C(=O)O)Nc2cc(Cl)cc(Cl)c21 (relative stereo)
The melting point of the first is lower: 172 to 174 °C for the first, 194 to 195 °C for the second.

First: NC/C(=C\F)COc1ccc(Cl)cc1Cl
Second: CCOC(=O)COc1cccc2c1OCC2=O
The melting point of the first is higher: 104 °C for the first, 89 to 90 °C for the second.

First: CC1(C)Oc2cc3nc(S)[nH]c3cc2O1
Second: CC(C)c1c[nH]c(S)n1
The melting point of the first is higher: greater than 300 °C for the first, 147 to 150 °C for the second.

Compared with `CC(C)=CCn1ncc(-c2ccc(S(N)(=O)=O)c(F)c2)c(-c2ccc(F)cc2)c1=O`, `CC1=C(CCN(O)C(N)=O)/C(=C/c2ccc(S(C)(=O)=O)cc2)c2ccccc21` is higher in melting point: 134 to 136 °C for the first, 140 to 142 °C for the second.

First: N#CCc1c[nH]c2cnc(-n3cncn3)cc12
Second: CC(=O)Nc1nccc2cc3cccnc3n12
The melting point of the first is higher: 218 to 220 °C for the first, 160 to 161 °C for the second.

First: Nc1ccc(C(O)C(CO)N2CCC(Cc3ccccc3)CC2)cc1 (stereo not drawn)
Second: O=C(Nc1ccc(C(=O)O)cc1)OCc1ccccc1
The melting point of the first is lower: 62 to 68 °C for the first, greater than 235 °C for the second.

`Cn1c(=O)[nH]c(=O)n(-c2ccc(Sc3nc4ccc(Cl)cc4s3)cc2)c1=O` and `CN1CCN(c2ccc3[nH]c(=O)c(-c4csc(-c5ccncc5)n4)c(N)c3c2)CC1` cannot be ordered by melting point: 232 to 233 °C for the first, greater than 220 °C for the second.

Compared with `Cc1[nH]c(-c2ccncc2)c(C)c1C(=O)C(F)(F)F`, `CN1CCN(C(=O)c2ccc(N)cc2C(F)(F)F)CC1` is lower in melting point: 169 to 170 °C for the first, 154 to 156 °C for the second.

Compared with `COC(=O)Cc1cccc(NC(=O)NCC(=O)N2[C@@H](c3ccccc3)SC[C@H]2C(=O)OC(C)(C)C)c1`, `CC(C)(C)[Si](C)(C)OC1CCCc2cnc3cc(OCc4ccccc4)ccc3c21` (stereo not drawn) is higher in melting point: 69 °C for the first, 123 to 125 °C for the second.

First: CN1C(c2cccnc2)CC(=O)CC1c1cccnc1 (stereo not drawn)
Second: COC(=O)c1cc(C(=O)c2ncc3ccccn23)ccc1N
The melting point of the first is lower: 103 to 106 °C for the first, 192 °C for the second.

Compared with `COc1ccccc1C(c1cccc2ccccc12)C(C)(C#N)C#N` (stereo not drawn), `Cc1oc(-c2ccccc2)nc1/C=C/c1ccc(COc2ccccc2CC(=O)O)cc1` is higher in melting point: 175 to 177 °C for the first, 189 to 190 °C for the second.

First: CC(C)(C)OC(=O)CON=C(C(=O)O)c1cccs1
Second: COc1ccc(N2CN(CC(=O)O)C(=O)C23CCN(C(=O)OC(C)(C)C)CC3)cc1
The melting point of the first is lower: 88.3 to 91.3 °C for the first, 173 to 174 °C for the second.

Going from `Cc1cc(C)n(C(=O)CCl)n1` to `CCn1c(C)nc2cc(C(=O)O)ccc21`, the melting point rises from 62 °C to greater than 250 °C.

Compared with `O=C1NC(=O)C(=Cc2ccc(S(=O)(=O)CCCc3ccccc3)cc2)S1`, `CC(=O)c1cc(=O)n(CCC(C(=O)NO)N(C)S(=O)(=O)c2ccc(Oc3ccccc3)cc2)c(=O)[nH]1` (stereo not drawn) is lower in melting point: 224 to 225 °C for the first, 167 to 169 °C for the second.

Compared with `CC(C)Oc1ccc2c(=O)c3ccc(O)cc3oc2c1`, `CCCCOc1c(CNC(=O)OC(C)(C)C)n(CC(C)C)c(=O)c2ccc(-c3ccco3)cc12` is lower in melting point: 268 to 281 °C for the first, 157 to 158 °C for the second.

First: Oc1ccc(C2(c3ccc(O)cc3)CCCCCC2)cc1
Second: CCCN1CCN(c2cccc3ccc(NC(=O)c4ccc(Cl)cc4)cc23)CC1
The melting point of the first is higher: 208 to 209 °C for the first, 130 to 132 °C for the second.

First: CC(C)C1(C)C(=O)N=C2c3ncc(C4OCCO4)cc3C(=O)N21 (stereo not drawn)
Second: CC(=O)N1N=C(c2ccc(NC(=O)CCl)cc2)c2cc3c(cc2CC1C)OCO3 (stereo not drawn)
The melting point of the first is higher: 146 to 148 °C for the first, 139 to 140 °C for the second.

First: O=C(Cn1ccnc1)c1ccc(Cl)c(Cl)c1
Second: CCN(CC)C(=O)c1ccc(Cl)c(C2(C)C(=O)N(Cc3ccc(OC)cc3OC)c3ccc(Cl)cc32)c1 (stereo not drawn)
The melting point of the first is higher: 126 to 128 °C for the first, 86 °C for the second.

First: CCOC(=O)C1(Cc2ccc(OC)c(OC)c2)C(=S)NCC1c1ccc(OC)c(OC)c1 (stereo not drawn)
Second: COc1cc2c(cc1OC)CN(CCCc1ccc(NC(=O)c3nc4cc(C)c(C)cc4nc3OC)cc1)CC2
The melting point of the first is higher: 166 to 169 °C for the first, 164 to 166 °C for the second.

First: Cc1ccc(S(=O)(=O)N2CCC(c3cccc4c3CCCC(C(=O)O)=C4)CC2)cc1
Second: CC(SSc1ccccc1C(=O)Nc1ccc(S(N)(=O)=O)cc1)C(=O)O (stereo not drawn)
The melting point of the first is lower: 255 to 257 °C for the first, 268 to 270 °C for the second.

First: CCCCCCCCCCCCCCCCCCC(=O)Nc1ccc(O)cc1
Second: CCCCCC(CC(=O)OC)c1cc(C=O)c(OC)cc1OC (stereo not drawn)
The melting point of the first is higher: 138 °C for the first, 110 to 112 °C for the second.

First: O=S(=O)(Cl)c1ccccc1CCl
Second: COc1nc(SC)cnc1NS(=O)(=O)c1cccc(Cl)c1Cl
The melting point of the first is lower: 43 to 45 °C for the first, 141 to 142 °C for the second.

Compared with `COc1cc2ncc(C#N)c(Nc3cccc(Br)c3)c2cc1OC`, `Cc1nc2cc(NC(=O)c3cc4cc(F)ccc4n3Cc3cccc(F)c3)cnc2n1C` is higher in melting point: 224 to 228 °C for the first, 274 to 275 °C for the second.

First: CCOP(=O)(/C=C/c1cn(-c2ccccc2)nc1OCc1ccc(OCc2nc(-c3ccco3)oc2C)nc1)OCC
Second: c1cc(COc2cccc(-c3nnn[nH]3)c2)cc(OCc2ccc3ccccc3n2)c1
The melting point of the first is lower: 134 to 135 °C for the first, 169 to 172 °C for the second.

Compared with `Cc1c(C(=O)C=Cc2ccccc2F)c2ccccc2n1CCN1CCOCC1`, `COc1ccc(N2CCN(Cc3n[nH]c4c(I)cccc34)CC2)cc1` is higher in melting point: 113 to 116 °C for the first, 185 to 186 °C for the second.

First: CCN1C(=O)C(C)(C)C(=O)N(C)c2cc(CN(CCn3ccc4oc(C)cc4c3=O)CCn3ccc4oc(C)cc4c3=O)ccc21
Second: COc1ccc2c(c1)c1c3c(c(-c4ccccc4Cl)cc1n2CCC(=O)NS(C)(=O)=O)C(=O)NC3=O
The melting point of the first is lower: 160 to 165 °C for the first, 293 to 295 °C for the second.

Compared with `C=CCC(CC=C)(C(=O)O)S(=O)(=O)c1ccc(OC)cc1`, `CC(=O)OC(OC(C)=O)c1ccc(C(OC(C)=O)(C(F)(F)F)C(F)(F)F)cc1` is lower in melting point: 114 to 116 °C for the first, 93 to 94.6 °C for the second.

First: CC(=O)Oc1ccc(-c2c3ccccc3c(Br)c3sc(C)c(C)c23)cc1
Second: Cc1cc(C)c(C(=O)c2ccccc2)c(OCC(O)CNC(C)C)c1C (stereo not drawn)
The melting point of the first is higher: 190 to 191 °C for the first, 121 to 123 °C for the second.

First: Cc1ccc(C)c(C(=O)NCC23CC4CC(CC(Cl)(C4)C2)C3)c1
Second: CC1=C(C(=O)OCCC#N)C(c2ccccc2Cl)C(c2nnco2)=C(C)N1 (stereo not drawn)
The melting point of the first is lower: 155 °C for the first, 180 to 182 °C for the second.

Compared with `O=c1oc2cc(O)cc(O)c2c(O)c1C1c2ccccc2Oc2c1c(=O)oc1cc(O)cc(O)c21` (stereo not drawn), `O=c1[nH]cnc2c(CN[C@H](CO)[C@H](O)CO)c[nH]c12` is lower in melting point: greater than 300 °C for the first, 230 °C for the second.

First: O=c1c(Cl)c(Cl)cnn1CC(Cl)=CCl
Second: CCOP(=O)(Cc1nc(Cl)cc(N2CCCC2)n1)OCC
The melting point of the first is higher: 93.7 to 94.6 °C for the first, 68 to 69 °C for the second.
